Results as given in patent publication EP0463492A1, “2,6-Diarylpyridin derivatives” (BAYER AG, priority 1990, dated 1992).

Test system: Testpflanzen
Experiment: Post-emergence test (greenhouse)
Type: in vivo
Conditions: post-emergence spray on test plants 5 - 15 cm high, 1000 l Wasser/ha; rated after three weeks as % Schädigung versus untreated control (0 % = keine Wirkung, 100 % = totale Vernichtung); application rates and plant species not given
Source text: Post-emergence-Test (Gewächshaus) • Lösungsmittel: 5 Gewichtsteile Aceton • Emulgator: 1 Gewichtsteil Alkylarylpolyglykolether
Zur Herstellung einer zweckmäßigen Wirkstoffzubereitung vermischt man 1 Gewichtsteil Wirkstoff mit den angegebenen Menge Lösungsmittel, gibt die angegebene Menge Emulgator zu und verdünnt das Konzentrat mit Wasser auf die gewünschte Konzentration.
Mit der Wirkstoffzubereitung spritzt man Testpflanzen, welche eine Höhe von 5 - 15 cm haben so, daß die jeweils gewünschten Wirkstoffmengen pro Flächeneinheit ausgebracht werden. Die Konzentration der Spritzbrühe wird so gewählt, daß in 1000 I Wasser/ha die jeweils gewünschten Wirkstoffmengen ausgebracht werden. Nach drei Wochen wird der Schädigungsgrad der Pflanzen bonitiert in % Schädigung im Vergleich zur Entwicklung der unbehandelten Kontrolle.
Es bedeuten: • 0 % = keine Wirkung (wie unbehandelte Kontrolle) • 100 % = totale Vernichtung

Structure (SMILES): CCOc1cc(-c2ccccc2)nc(-c2cccc(CC)c2)c1 [Beispiel 2, 4-Ethoxy-2-(3-ethylphenyl)-6-phenyl-pyridin]
- Wirksamkeit und Nutzpflanzenselektivität: sehr gute Wirksamkeit und Nutzpflanzenselektivität
